Experimental findings from US5221682A, “Heteroarylamino- and heteroaryloxypyridinamines and related compounds” (Hoechst-Roussel Pharmaceuticals Incorporated, priority 1991, dated 1993) are described below.

The structures appear in SMILES notation.

The subject of assay [1] is mouse ear edema induced by topical application of arachidonic acid. In words: Arachidonic Acid-Induced Ear Edema (AAEE). The assay is classed as in vivo, Female Swiss Webster mice. Conditions: for AAEE: 1 mg (1.0 mg/ear). The procedure: Arachidonic Acid-Induced Ear Edema (AAEE)
Female Swiss Webster mice topically received vehicle or test compound (1.0 mg/ear) on both ears (10 μl on outer and inner ears). After 30 minutes, the right ear of all groups received arachidonic acid (4 mg/ear) and the left ear received vehicle alone. […] See Young, J. M. et al., Invest. Dermatol., 80, (1983), pp 48-52.

Assay [2] relates to naja naja (snake venom) phospholipase A2 -induced paw edema. Put plainly: Phospholipase A2-induced Paw Edema (PIPE). The assay is classed as in vivo, male Wistar rats. Conditions: for PIPE, difference in edema vs. control: 0.1M, rat, subplantar injection, two hours. Here is the method:
Phospholipase A2 -induced Paw Edema (PIPE)
The ability of compounds to prevent naja naja (snake venom) phospholipase A2 -induced paw edema in male Wistar rats (100-125 g) was measured. PLA2 (3 units/paw) alone or with 0.1M of the test compound was injected in the subplantar region of the rat left hindpaw. Immediately subsequent to the injection and at two hours post administration the paw was immersed in a mercury bath, and paw displacement was measured on a recorder via a transducer. […] See Giessler, A. J. et al., Agents and Actions, Vol. 10, Trends in Inflammation Research (1981), p. 195.

For the next assay, the target named is T1, porcine pancreatic PLA2 (Sus scrofa, UniProt P00592).
T1 construct: from tissue; host or cells: porcine pancreas
In words: In Vitro Phospholipase A2 Assay (PLA2). Type of assay: biochemical. Conditions: 0.01M; read-out: PLA2 (difference vs. control). The procedure: In Vitro Phospholipase A2 Assay (PLA2)
The ability of a compound to modulate PLA2 activity (cleavage of ^14 C-dipalmitoyl phosphotidylcholine at the 2-position to ^14 C-palmitic acid) was quantitated in this assay. The reaction mixture contained Tris buffer (25 mM), pH 8.0, calcium chloride (2.0 mM), bovine serum albumin (0.5 mg), dipalmitoyl phosphotidylcholine (8×10^-5M), (^14 C-palmitoyl)dipalmitoyl phosphotidylcholine (6×10^3cpm), porcine pancreatic PLA2 (3.2 units) and the test compound. The reaction was run at 37° C. in a shaking incubator. The reaction was quenched and an internal standard was added in order to determine sample recovery. The samples were loaded onto C18 columns, eluted with ethanol, and the radioactivity was then measured. […] See Feyen, J. H. M., et al., Journal of Chromatography 259 (1983), pp. 338-340.

Assay [3] has as its system ear edema induced by topical application of TPA (phorbol 12-myristate acetate). In words: TPA-Induced Ear Edema (TPAEE). Conditions: for change in vivo at 10 µg/ear: Mus musculus, 5 h, read-out: TPAEE.
Method: Female Swiss Webster mice topically received TPA (10 μg/ear) on the right ear and vehicle on the left ear. The test compound (10 μg/ear) was applied to both ears. After five hours, the animals were sacrificed and an ear punch (4 mm) was taken from each ear. The difference in right and left ear punch weights for each animal was determined to assess activity.
Another assay relates to epidermal DNA synthesis. Put plainly: Epidermal DNA Synthesis (in vivo DNA). Further details: species or system HRS/J hairless mice. Conditions: topical, hairless mice; for in vivo DNA: 2.5 mg. Here is the method:
Epidermal DNA Synthesis (in vivo DNA)
The influence of compounds on the proliferation of skin was assessed by determining inhibition or stimulation of DNA synthesis. HRS/J hairless mice received topical application of a compound or vehicle alone on the dorsal aspect. After 24 hours, ^3 H-thymidine (25 μCi) was administered by intraperitonal injection. After an additional hour, animals were sacrificed and the dorsal skin was removed. The epidermal layer was peeled from the dermis by heat separation. Unincorporated ^3 H-thymidine was removed by washing successively with trichloroacetic acid and ethanol. Samples were centrifuged at 2,000 rpm and supernatants discarded. The epidermal sheets were then extracted with warm trichloroacetic acid and the supernatants analyzed for ^3 H-thymidine incorporation by scintillation counting and total DNA by a standard colorimetric assay. […] See Lowe, N. J., et al., Arch. Dermatol., 117 (1981), pp. 394-8; and Burton, K., Biochem. J. 62 (1956), pp. 315-22.

In assay [4] the test system is cultured human epidermal keratinocytes. Put plainly: Culture Human Keratinocyte DNA Synthesis (in vitro DNA). Type of assay: cell-based. The procedure:
Culture Human Keratinocyte DNA Synthesis (in vitro DNA)
The effect of a compound on the proliferation of cultured human epidermal keratinocytes was measured. After incubation with a test compound for 24 hours, the cultures were pulse-labelled for three hours with 5 μCi of ^3 H-thymidine. The cultures were extracted for DNA successively with trichloroacetic acid and ethanol, and thereafter dissolved with NaOH. The radioactive incorporation of ^3 H-thymidine into DNA was determined.

T1 sequence (P00592 23-146): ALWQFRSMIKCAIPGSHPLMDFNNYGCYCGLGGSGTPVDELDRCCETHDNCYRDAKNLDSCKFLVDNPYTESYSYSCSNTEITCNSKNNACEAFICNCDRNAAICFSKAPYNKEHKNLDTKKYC

In the case of `CC(=O)N1CCc2cc(Nc3cnccc3N)ccc21` [1-Acetyl-N-(4-amino-3-pyridinyl)-2,3-dihydro-1H-indol-5-amine], the AAEE in assay [1] is given as -36%.
Consider `Cn1ccc2cc(Nc3c[n+]([O-])ccc3[N+](=O)[O-])ccc21` [1-Methyl-N-(4-nitro-3-pyridinyl)-1H-indol-5-amine, N^5-oxide], for which the “PIPE, difference in edema vs. control” value in assay [2] was -41%. The inhibition at 10000 µM at porcine pancreatic PLA2 is 66%. In addition, the change in vivo at 10 µg/ear in assay [3] is -30%.
`Nc1ccncc1Oc1ccc2[nH]ccc2c1` [3-[(1H-Indol-5-yl)-oxy]-4-pyridinamine, 3-[(1H-Indol-5-yl)oxy]-4-pyridinamine]: in assay [1], the AAEE is -50%. Also, the “in vivo DNA” value in the assay on epidermal DNA synthesis is -37%. In addition, the “PIPE, difference in edema vs. control” value in assay [2] is -62%. For the same compound, the inhibition at 10000 µM on porcine pancreatic PLA2 amounted to 34%. Moreover, the change in vivo at 10 µg/ear in assay [3] is -42%.
On to `Nc1cnccc1Oc1ccc2[nH]ccc2c1` [4-[(1H-Indol-5-yl)-oxy]-3-pyridinamine, 4-[(1H-Indol-5-yl)oxy]-3-pyridinamine], for which the “PIPE, difference in edema vs. control” value in assay [2] was -52%.
Take `Nc1cnccc1Nc1ccc2[nH]ccc2c1` [N-(3-Amino-4-pyridinyl)-1H-indol-5-amine]: the AAEE in assay [1] is on record as -37%. Besides, the inhibition at 10000 µM on porcine pancreatic PLA2 was found to be 82%.
Turning to `O=[N+]([O-])c1cnccc1Nc1ccc2[nH]ccc2c1` [N-(3-Nitro-4-pyridinyl)-1H-indol-5-amine], the inhibition at 10000 µM at porcine pancreatic PLA2 was found to be 36%.
Consider `Cn1ccc2cc(Nc3cnccc3N)ccc21` [N-(4-Amino-3-pyridinyl)-1-methyl-1H-indol-5-amine], for which the “PIPE, difference in edema vs. control” value in assay [2] was -42%. Also, the inhibition at 10000 µM on porcine pancreatic PLA2 is 62%.
Consider `Nc1ccncc1Nc1ccc2cn[nH]c2c1` [N-(4-Amino-3-pyridinyl)-1H-indazol-6-amine], for which the AAEE in assay [1] is -35%. The inhibition at 10000 µM at porcine pancreatic PLA2 stood at 57%.
Regarding `Nc1ccncc1Nc1ccc2[nH]ccc2c1` [N-(4-Amino-3-pyridinyl)-1H-indol-5-amine], the AAEE in assay [1] is -41%. Moreover, the “in vivo DNA” value with epidermal DNA synthesis was -27%. Also, the “PIPE, difference in edema vs. control” value in assay [2] is recorded as -67%. In addition, on porcine pancreatic PLA2, the inhibition at 10000 µM amounted to 87%. For the same compound, the change in vivo at 10 µg/ear in assay [3] was -85%. For the same compound, the inhibition at 50 µM in assay [4] (50 μM, 24 hours) turned out to be 81%.
For `Nc1cc[n+]([O-])cc1Nc1cccc2cc[nH]c12` [N-(4-Amino-3-pyridinyl)-1H-indol-7-amine, N^7-oxide], in assay [2], the “PIPE, difference in edema vs. control” value is listed as -45%. Besides, in assay [3], the change in vivo at 10 µg/ear is -38%.
Take `O=[N+]([O-])c1cc[n+]([O-])cc1Nc1ccc2[nH]ncc2c1` [N-(4-Nitro-3-pyridinyl)-1H-indazol-5-amine, N^5-oxide]: in assay [3], the change in vivo at 10 µg/ear was -78%.
Take `O=[N+]([O-])c1cc[n+]([O-])cc1Nc1ccc2cn[nH]c2c1` [N-(4-Nitro-3-pyridinyl)-1H-indazol-6-amine, N^6-oxide]: the inhibition at 10000 µM at porcine pancreatic PLA2 stood at 83%.
The same measure, in the same setting: for `O=[N+]([O-])c1cc[n+]([O-])cc1Nc1ccc2[nH]ccc2c1` [N-(4-Nitro-3-pyridinyl)-1H-indol-5-amine, N^5-oxide] the value was 71%.
For `O=[N+]([O-])c1cc[n+]([O-])cc1Nc1cccc2cc[nH]c12` [N-(4-Nitro-3-pyridinyl)-1H-indol-7-amine, N^7-oxide], the change in vivo at 10 µg/ear in assay [3] was -40%.
The same measure, in the same setting: for `O=[N+]([O-])c1cc[n+]([O-])cc1NC1CCc2ccccc21` (stereo not drawn) [N-(Indan-1-yl)-4-nitro-3-pyridinamine-1-oxide] the value was -65%.
For `O=[N+]([O-])c1cc[n+]([O-])cc1Nc1ccc2c(c1)CCC2` [N-(Indan-5-yl)-4-nitro-3-pyridinamine-1-oxide], the AAEE in assay [1] is -44%. Also, in assay [3], the change in vivo at 10 µg/ear is -48%.
The corresponding values for `Nc1ccncc1Nc1ccc2c(c1)CCC2` [N^3-(Indan-5-yl)-3,4-pyridinediamine] are -49% and -75%.
Consider `C[C@]12CCC(=O)C=C1CC[C@@H]1[C@@H]2[C@@H](O)C[C@@]2(C)[C@H]1CC[C@]2(O)C(=O)CO` [hydrocortisone, reference compound], for which the “ED50 (Standard)” value is 0.46 M in assay [2] (PIPE standard, rat paw) and 47 μg/ear in assay [3] (TPAEE standard, mouse).
With `COc1ccc2c(c1)c(CC(=O)O)c(C)n2C(=O)c1ccc(Cl)cc1` [indomethacin, reference compound], the entries for the “ED50 (Standard)” value (in assay [1] (AAEE standard); in the assay with epidermal DNA synthesis (in vivo DNA standard)) were 1.5 mg/ear and 1.75 mg/animal, respectively. The half-inhibitory concentration (IC50) in assay [4] (read-out: IC50 (Standard)) is 38 µM.

By IC50 is commonly meant the concentration that inhibits the measured activity by half.
